The record followed here is PubChem BioAssay (NCI).

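All cell lines were grown in 96-well plates and treated with compound for 48 hours. Here, GI50 denotes the concentration required for 50% inhibition of growth. TGI: total growth inhibition.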 Some results are limits rather than exact numbers.

Among the test systems are OVCAR-5 ovarian; A498 renal; HCT-15 colon; RXF 393 renal; HCT-116 colon; OVCAR-3 ovarian; HT29 colon; RPMI-8226 leukemia; K-562 leukemia; NCI-H460 lung.
Common to all, as to assay: NCI anticancer screen, dose series, 48 h

In the case of `COc1cc2nc(-c3ccc(C(F)(F)F)cc3)cc(OCCCN3CCCC3)c2cc1OC`, the GI50 was 0.803 µM with OVCAR-5 ovarian; 1.07 µM with A498 renal; 0.429 µM in the test with HCT-15 colon; 0.448 µM in the test on RXF 393 renal; 0.333 µM with HCT-116 colon; 4.07 µM in the test with OVCAR-3 ovarian. The GI50 was 0.429 µM in the test with HT29 colon, 0.0786 µM in the test with RPMI-8226 leukemia, 0.445 µM in the test with K-562 leukemia and 0.597 µM in the test on NCI-H460 lung. The TGI is 18.9 µM with OVCAR-5 ovarian; 4.31 µM with A498 renal; 6.99 µM in the test with HCT-15 colon; 3.85 µM in the test on RXF 393 renal; 4.29 µM in the test with HCT-116 colon; > 42.2 µM in the test with OVCAR-3 ovarian. In addition, the TGI was found to be 5.85 µM in the test with HT29 colon, 1.6 µM in the test with RPMI-8226 leukemia, 4.54 µM with K-562 leukemia and 19.6 µM with NCI-H460 lung.

As to `CCCCCCCCCCCC1CC(=O)NCCCN(C)CCCCN(C)CCCN1C` (stereo not given), the TGI came out at 3.3 µM in the test with OVCAR-5 ovarian; 3.14 µM in the test with A498 renal; 3 µM in the test on HCT-15 colon; 3.02 µM in the test on RXF 393 renal; 2.89 µM with HCT-116 colon; 3.07 µM with OVCAR-3 ovarian. Further, the TGI is 2.97 µM in the test with HT29 colon, 4.09 µM in the test on RPMI-8226 leukemia, 0.699 µM in the test on K-562 leukemia and 2.66 µM in the test on NCI-H460 lung.

Regarding `Cc1ccc(NC(=O)/C(Cc2cc(=O)oc3cc(O)ccc23)=N\NC(=O)C[N+](C)(C)C)cc1C`, the TGI in the test on OVCAR-5 ovarian, in the test on A498 renal, in the test on HCT-15 colon, in the test on RXF 393 renal, in the test with HCT-116 colon and in the test with OVCAR-3 ovarian was > 100 µM throughout. For the same compound, the TGI in the test with HT29 colon, with RPMI-8226 leukemia, in the test with K-562 leukemia and in the test with NCI-H460 lung was > 100 µM each time.

`O=C1c2ccccc2-c2c1c1c(NCCCO)nc3ccccc3c1n2Cc1ccccc1`: the GI50 is 18 µM with OVCAR-5 ovarian; 21.6 µM in the test on A498 renal; 37.5 µM with HCT-15 colon; 32.5 µM in the test on RXF 393 renal; 15.8 µM with HCT-116 colon; 19.8 µM in the test with OVCAR-3 ovarian. Further, the GI50 is 17.1 µM in the test with HT29 colon, 14.3 µM with RPMI-8226 leukemia, 15.5 µM in the test with K-562 leukemia and 17.5 µM with NCI-H460 lung. In addition, the TGI is 39.9 µM in the test with OVCAR-5 ovarian; 48.6 µM in the test on A498 renal; > 100 µM in the test on HCT-15 colon; 86.6 µM with RXF 393 renal; 35.1 µM in the test with HCT-116 colon; 45.9 µM in the test on OVCAR-3 ovarian. Also, the TGI in the test on HT29 colon turned out to be 30.8 µM; in the test with RPMI-8226 leukemia it was 27.3 µM; in the test on K-562 leukemia, 28.8 µM; in the test with NCI-H460 lung it was 38.1 µM.

Turning to `COc1ccc2[nH]c(-c3ccc(O)cc3)cc(=O)c2c1`, the TGI in the test with OVCAR-5 ovarian is > 82.8 µM; with A498 renal, 0.725 µM; in the test with HCT-15 colon it was 7.03 µM; in the test with RXF 393 renal, 5.16 µM; with HCT-116 colon, 10.4 µM; in the test with OVCAR-3 ovarian, 13.1 µM. Also, the TGI in the test on HT29 colon is 8.69 µM; in the test with RPMI-8226 leukemia, 65.2 µM; in the test on K-562 leukemia, > 48.3 µM; in the test with NCI-H460 lung, 9.35 µM.

On to `CCNCCNc1cc(-c2ccc(C#N)cc2)c(C#N)c2nc3ccccc3n12`, for which the GI50 in the test with OVCAR-5 ovarian is 4.66 µM; in the test on A498 renal, 3.73 µM; with HCT-15 colon it was 2.81 µM; in the test on RXF 393 renal, 1.74 µM; with HCT-116 colon, 1.5 µM; with OVCAR-3 ovarian, 1.66 µM. The GI50 in the test on HT29 colon is 3.1 µM; in the test on RPMI-8226 leukemia, 4.78 µM; in the test on K-562 leukemia, 3.13 µM; with NCI-H460 lung it was 2.47 µM. Besides, the TGI stood at 18.4 µM with OVCAR-5 ovarian; 11.9 µM with A498 renal; 11 µM with HCT-15 colon; 4.1 µM in the test on RXF 393 renal; 2.94 µM in the test with HCT-116 colon; 3.09 µM with OVCAR-3 ovarian. Besides, the TGI with HT29 colon turned out to be 9.82 µM; in the test on RPMI-8226 leukemia, 19.5 µM; in the test with K-562 leukemia, 18.2 µM; in the test on NCI-H460 lung, 5.66 µM.
